Measured values: patent US8815796B2, “Polyheterocyclic compounds highly potent as HCV inhibitors” (AB Pharma Ltd., priority 2010, dated 2014)

biological target: T1, HCV NS3-4A protease (Hepatitis C virus genotype 1a, UniProt P27958); assay: HCV NS3-4A protease assay in vitro (FRET-S substrate); assay type: biochemical; settings: not given
T1 construct: HCV NS3-4A protease
Experimental: HCV NS3-4A Protease Assay In Vitro.
The assay was conducted in Buffer A containing 30 mM NaCl, 5 mM CaCl2, 10 mM DTT, 50 mM Tris (pH7.8), using the Ac-Asp-Glu-Asp(EDANS)-Glu-Glu-Abu-ψ-[COO]-Ala-Ser-Lys (DABCYL)-NH2 (FRET-S) fluorescent peptide (AnaSpec, USA) as substrate. Briefly, 140 μL buffer A, 20 μL compounds dissolved in buffer A with different concentration and 20 μL HCV NS3-4A protease diluted in buffer A were added into 96-well plate respectively and mixed well. The reaction was initiate with adding 20 μL of FRET-S. Reactions were continuously monitored at 37° C. using a BMG Polarstar Galaxy (MTX Lab Systems, Inc. USA), with excitation and emission filters of 355 nm and 520 nm, respectively. The 50% inhibitory concentration (IC50) was calculated with Reed & Muench methods.

T1 sequence (P27958 1027-1657): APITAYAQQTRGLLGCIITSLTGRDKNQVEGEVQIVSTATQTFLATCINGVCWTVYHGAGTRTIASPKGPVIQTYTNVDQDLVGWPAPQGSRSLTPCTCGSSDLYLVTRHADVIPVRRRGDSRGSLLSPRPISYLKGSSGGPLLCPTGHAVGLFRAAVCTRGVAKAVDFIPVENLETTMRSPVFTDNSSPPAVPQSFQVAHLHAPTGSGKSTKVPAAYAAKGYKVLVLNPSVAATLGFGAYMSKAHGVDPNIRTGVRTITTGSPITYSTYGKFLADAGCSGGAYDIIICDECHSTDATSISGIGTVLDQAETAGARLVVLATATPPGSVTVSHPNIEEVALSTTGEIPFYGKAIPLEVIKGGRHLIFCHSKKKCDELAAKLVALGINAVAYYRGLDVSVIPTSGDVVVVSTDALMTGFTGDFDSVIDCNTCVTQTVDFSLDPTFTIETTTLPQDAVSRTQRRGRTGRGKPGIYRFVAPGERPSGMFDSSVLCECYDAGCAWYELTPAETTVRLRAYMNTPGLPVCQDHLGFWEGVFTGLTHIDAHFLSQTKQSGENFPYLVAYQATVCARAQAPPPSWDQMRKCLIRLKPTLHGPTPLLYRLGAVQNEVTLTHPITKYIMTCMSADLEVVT
T1 sequence (P27958 1658-1711): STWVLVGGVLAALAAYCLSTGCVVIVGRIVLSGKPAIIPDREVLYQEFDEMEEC

SMILES	IC50 [nM]
CC[C@H]1C[C@@]1(NC(=O)C1C[C@@H](OC(=O)N2Cc3cc4c(cc3C2)OCO4)CN1C(=O)[C@@H](NC(=O)[C@@H](NC(=O)Oc1ccccc1)C1CCCCC1)C(C)(C)C)C(=O)NS(=O)(=O)C1CC1 (some centres unmarked) [Compound 30z]	< 30
CC[C@H]1C[C@@]1(NC(=O)C1C[C@@H](OC(=O)N2Cc3cc4c(cc3C2)OCO4)CN1C(=O)[C@@H](NC(=O)[C@@H](NC(=O)c1cnccn1)C1CCCCC1)C(C)(C)C)C(=O)NS(=O)(=O)C1CC1 (some centres unmarked) [Compound 30b]	< 30

same assay, conditions: HCV NS3-4A protease inhibition, 37° C., class symbols; read-out: NS3-NS4A IC50

IC50 [nM]	SMILES
< 30	C=C[C@H]1C[C@@]1(NC(=O)C1C[C@@H](OC(=O)N2Cc3cccc(F)c3C2)CN1C(=O)[C@@H](NC(=O)OC1CCCC1)C(C)(C)C)C(=O)NS(=O)(=O)C1CC1 (some centres unmarked) [Compound 30aq]
< 30	CC[C@H]1C[C@@]1(NC(=O)C1C[C@@H](OC(=O)N(C)Cc2ccc3c(c2)OCO3)CN1C(=O)[C@@H](NC(=O)OC1CCCC1)C(C)(C)C)C(=O)NS(=O)(=O)C1CC1 (some centres unmarked) [Compound 30ap]
< 30	COc1ccc(S(=O)(=O)N[C@H]2CCCCC/C=C\[C@@H]3C[C@@]3(C(=O)NS(=O)(=O)C3CC3)NC(=O)[C@@H]3C[C@@H](OC(=O)N4Cc5cc6c(cc5C4)OCO6)CN3C2=O)cc1 [Compound 16c]
< 30	C=C[C@H]1C[C@@]1(NC(=O)C1C[C@@H](OC(=O)N2Cc3cc4c(cc3C2)OCO4)CN1C(=O)[C@@H](NC(=O)NC(C)(C)C)C(C)(C)C)C(=O)NS(=O)(=O)C1CC1 (some centres unmarked) [Compound 30ar]

The remaining lines, values behind:

SMILES	IC50 [nM]
CC(C)(C)OC(=O)N[C@H]1CCCCC/C=C\[C@@H]2C[C@@]2(C(=O)O)NC(=O)[C@@H]2C[C@@H](OC(=O)N3Cc4cc5c(cc4C3)OCCO5)CN2C1=O [Compound 11c]	> 200
O=C1N[C@]2(C(=O)NS(=O)(=O)C3CC3)C[C@H]2/C=C\CCCCC[C@H](N2CCCS2(=O)=O)C(=O)N2C[C@H](OC(=O)N3Cc4cc5c(cc4C3)OCCO5)C[C@@H]12 [Compound 12j]	30 to 200
